Assay results published in PMC3752901 (Clinical cancer research : an official journal of the …, 2013).

Assays:
mouse Abcc4 = target: T1, mouse Abcc4 (Mus musculus, UniProt E9Q236); assay: Accumulation/efflux in Saos-2 cells transfected with Abcc4; conditions: 100 μM, 4-h incubation
T1 sequence (E9Q236 1-1325): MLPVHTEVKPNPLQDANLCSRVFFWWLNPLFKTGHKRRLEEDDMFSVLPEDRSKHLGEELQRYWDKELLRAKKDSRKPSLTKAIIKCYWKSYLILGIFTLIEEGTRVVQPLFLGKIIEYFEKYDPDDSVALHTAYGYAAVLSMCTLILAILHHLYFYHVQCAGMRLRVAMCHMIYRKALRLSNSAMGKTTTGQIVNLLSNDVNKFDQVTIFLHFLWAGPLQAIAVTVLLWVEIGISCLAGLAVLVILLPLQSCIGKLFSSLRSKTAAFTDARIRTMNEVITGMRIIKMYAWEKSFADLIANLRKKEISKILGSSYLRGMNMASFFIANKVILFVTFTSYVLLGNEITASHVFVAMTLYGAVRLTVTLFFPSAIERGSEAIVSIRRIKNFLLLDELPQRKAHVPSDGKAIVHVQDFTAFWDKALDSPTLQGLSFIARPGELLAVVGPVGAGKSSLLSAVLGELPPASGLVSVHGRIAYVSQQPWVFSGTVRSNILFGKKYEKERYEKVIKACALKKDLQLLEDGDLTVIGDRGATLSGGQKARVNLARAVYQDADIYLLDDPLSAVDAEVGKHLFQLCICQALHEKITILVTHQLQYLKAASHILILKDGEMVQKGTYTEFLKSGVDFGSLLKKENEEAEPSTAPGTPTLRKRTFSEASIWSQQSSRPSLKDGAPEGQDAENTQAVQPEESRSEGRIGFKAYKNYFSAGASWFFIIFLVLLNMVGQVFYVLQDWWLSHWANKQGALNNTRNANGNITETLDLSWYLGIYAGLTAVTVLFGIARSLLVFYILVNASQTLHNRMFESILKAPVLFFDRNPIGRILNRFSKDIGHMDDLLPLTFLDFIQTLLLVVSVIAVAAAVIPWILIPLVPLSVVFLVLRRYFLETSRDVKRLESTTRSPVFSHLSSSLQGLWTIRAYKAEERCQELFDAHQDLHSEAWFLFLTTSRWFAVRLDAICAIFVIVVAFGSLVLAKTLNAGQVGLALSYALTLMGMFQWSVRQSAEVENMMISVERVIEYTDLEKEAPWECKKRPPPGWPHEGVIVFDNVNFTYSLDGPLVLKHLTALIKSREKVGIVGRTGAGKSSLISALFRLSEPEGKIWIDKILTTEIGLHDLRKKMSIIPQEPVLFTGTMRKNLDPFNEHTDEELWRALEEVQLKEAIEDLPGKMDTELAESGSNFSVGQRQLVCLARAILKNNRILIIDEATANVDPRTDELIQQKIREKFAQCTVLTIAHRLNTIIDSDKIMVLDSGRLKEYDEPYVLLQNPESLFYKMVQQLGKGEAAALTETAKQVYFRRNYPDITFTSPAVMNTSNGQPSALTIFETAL

[1] = Binding to serum proteins; type: in vitro ADME; conditions: male, C57BL/6, mouse
ABCC3 (MRP3) = ABCC3 (MRP3) (Homo sapiens, UniProt O15438); assay: Uptake into inside-out Sf9 vesicles expressing ABCC3; type: in vitro ADME; conditions: same experimental conditions as ABCC4 vesicles
mOct1 = target: T2, mOct1 (Mus musculus, UniProt O08966); assay: Uptake in HEK293 cells expressing mOct1; type: in vitro ADME; conditions: HEK293, 1 μM
T2 sequence (O08966 1-556): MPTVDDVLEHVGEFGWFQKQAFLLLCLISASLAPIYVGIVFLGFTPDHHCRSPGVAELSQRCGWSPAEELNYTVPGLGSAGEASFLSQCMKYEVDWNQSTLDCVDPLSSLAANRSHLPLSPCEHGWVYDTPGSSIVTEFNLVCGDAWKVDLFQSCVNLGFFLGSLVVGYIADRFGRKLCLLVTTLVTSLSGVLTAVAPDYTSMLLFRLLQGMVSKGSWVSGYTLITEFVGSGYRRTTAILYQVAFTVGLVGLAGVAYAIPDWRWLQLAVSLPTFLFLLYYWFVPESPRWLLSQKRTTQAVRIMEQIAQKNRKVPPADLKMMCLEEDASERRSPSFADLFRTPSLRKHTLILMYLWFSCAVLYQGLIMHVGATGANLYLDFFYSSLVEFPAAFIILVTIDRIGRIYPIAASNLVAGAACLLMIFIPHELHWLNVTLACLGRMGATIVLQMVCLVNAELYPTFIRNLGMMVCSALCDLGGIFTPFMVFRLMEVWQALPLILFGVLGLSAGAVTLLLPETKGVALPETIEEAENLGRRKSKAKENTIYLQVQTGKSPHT

Blood cell partitioning = type: in vitro ADME, mouse
[2] = Plasma pharmacokinetics in wildtype and Abcc4; conditions: for clearance / Cmax / Tmax: male, C57BL/6, mouse, plasma, 10 mg/kg; for clearance: CL
[3] = human, oral administration; cited from earlier work
Abcc4 = target: T3, Abcc4 (Mus musculus, UniProt E9Q236); assay: Ex vivo mucosal-to-serosal transport in isolated stomach sacs; type: in vitro ADME; conditions: Abcc4(−/−) vs wildtype mice
T3 sequence (E9Q236 1-1325): T1 sequence (E9Q236 1-1325)

[4] = iv, i.v. 10 mg/kg, Abcc4(−/−) mice
[5] = iv, i.v. 10 mg/kg, wildtype mice
[6] = po, oral 10 mg/kg, Abcc4(−/−) mice
[7] = po, oral 10 mg/kg, wildtype mice

Chain of ABCC3 (MRP3) (O15438 whole entry): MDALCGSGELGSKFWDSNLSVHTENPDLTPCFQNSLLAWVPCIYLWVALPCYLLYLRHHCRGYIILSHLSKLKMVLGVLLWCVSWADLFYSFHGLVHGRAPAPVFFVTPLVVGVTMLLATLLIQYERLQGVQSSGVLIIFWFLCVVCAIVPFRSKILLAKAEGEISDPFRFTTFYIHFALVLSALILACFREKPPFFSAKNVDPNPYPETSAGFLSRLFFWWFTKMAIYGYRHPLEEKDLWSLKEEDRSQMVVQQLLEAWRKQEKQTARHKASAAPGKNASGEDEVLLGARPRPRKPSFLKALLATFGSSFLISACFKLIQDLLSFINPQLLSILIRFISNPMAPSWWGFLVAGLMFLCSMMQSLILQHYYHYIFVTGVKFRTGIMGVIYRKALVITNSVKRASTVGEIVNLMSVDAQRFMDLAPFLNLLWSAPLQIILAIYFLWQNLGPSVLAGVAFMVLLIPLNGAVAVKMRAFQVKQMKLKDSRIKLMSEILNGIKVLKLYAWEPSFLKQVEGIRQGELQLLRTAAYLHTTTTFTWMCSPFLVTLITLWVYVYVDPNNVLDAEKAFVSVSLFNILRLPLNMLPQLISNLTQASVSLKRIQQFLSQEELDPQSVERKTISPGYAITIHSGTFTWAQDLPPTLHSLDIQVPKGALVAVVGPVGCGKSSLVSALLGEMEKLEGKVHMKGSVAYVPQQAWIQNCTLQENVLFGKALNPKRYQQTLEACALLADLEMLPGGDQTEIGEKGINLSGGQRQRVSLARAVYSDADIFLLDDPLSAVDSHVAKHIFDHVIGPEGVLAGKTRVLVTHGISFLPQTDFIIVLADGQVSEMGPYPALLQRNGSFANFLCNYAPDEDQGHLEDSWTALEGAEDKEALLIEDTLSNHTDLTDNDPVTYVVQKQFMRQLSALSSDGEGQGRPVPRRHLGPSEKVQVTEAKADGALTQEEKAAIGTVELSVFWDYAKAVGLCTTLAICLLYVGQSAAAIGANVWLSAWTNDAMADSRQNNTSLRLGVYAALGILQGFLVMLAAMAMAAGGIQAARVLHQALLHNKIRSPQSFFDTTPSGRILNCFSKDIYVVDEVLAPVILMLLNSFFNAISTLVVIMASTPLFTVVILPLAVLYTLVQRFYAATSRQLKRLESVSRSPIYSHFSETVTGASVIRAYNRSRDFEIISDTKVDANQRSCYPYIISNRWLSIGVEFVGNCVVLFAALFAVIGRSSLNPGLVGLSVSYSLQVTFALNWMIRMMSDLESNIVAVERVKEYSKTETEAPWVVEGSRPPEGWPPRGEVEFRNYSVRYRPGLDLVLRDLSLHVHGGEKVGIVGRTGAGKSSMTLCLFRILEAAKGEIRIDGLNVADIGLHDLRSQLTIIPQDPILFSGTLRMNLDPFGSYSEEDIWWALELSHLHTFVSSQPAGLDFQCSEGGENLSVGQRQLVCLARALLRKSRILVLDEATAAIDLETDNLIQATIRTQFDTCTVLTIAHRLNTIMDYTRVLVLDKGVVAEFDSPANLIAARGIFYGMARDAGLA

transport by mouse Abcc4 (accumulation in Saos-2 cells overexpressing Abcc4 compared to control cells) (mouse Abcc4): significantly reduced accumulation
fraction unbound ([1]; Abcc4(−/−) mice): 0.0812 ± 0.00493
fraction unbound ([1]; wildtype mice): 0.087 ± 0.0044
accumulation in ABCC3 vesicles compared to control (ABCC3 (MRP3)): 1.3 fold
intracellular accumulation on overexpression of Oct1 (mOct1): did not alter intracellular accumulation
Blood cell partitioning (Blood cell partitioning; Abcc4(−/−) mice): 36.1 ± 2.86%
Blood cell partitioning (Blood cell partitioning; wildtype mice): 33.0 ± 1.04%
clearance [2, 4]: 41.9 mL/min/kg
clearance [2, 5]: 49.6 mL/min/kg
Cmax [2, 4]: 3460 ng/mL
Cmax [2, 5]: 3390 ng/mL
Cmax [2, 6]: 48.1 ± 16.5 ng/mL
Cmax [2, 7]: 182 ± 93.8 ng/mL
Tmax [2, 6]: 2.19 ± 1.06 h
Tmax [2, 7]: 0.306 ± 0.223 h
Ka ([2]; oral 10 mg/kg, Abcc4(−/−) mice): 2.49 ± 0.92 h⁻¹
Ka ([2]; oral 10 mg/kg, wildtype mice): 34.3 ± 6.85 h⁻¹
reduction of drug transport to the serosal side with Abcc4-deficiency (Abcc4): up to 3.9 fold
SMILES: Cc1nc(Nc2ncc(C(=O)Nc3c(C)cccc3Cl)s2)cc(N2CCN(CCO)CC2)n1 [dasatinib, Dasatinib]
unchanged drug as share of the dose recovered in feces [3]: 19%
unchanged drug as share of the dose recovered in urine [3]: less than 1%
